The source of these data is patent publication US11938168B2, “Ophthalmic compositions and methods of use therefor” (Auckland Uniservices Limited, priority 2015, dated 2024).

Where only a bound is given, the exact number is not on record here.

For test [1], the system named is keratocytes. Kind of test: TGFβ3 and dexamethasone tested separately, collagen type II production. Format: cell-based. The following applies: agents tested separately.
Test [2] relates to mink lung epithelial (Mv1Lu) cells. The following applies: exemplary activity; cited from earlier work.

Regarding `C[C@@H]1C[C@H]2[C@@H]3CCC4=CC(=O)C=C[C@]4(C)[C@@]3(F)[C@@H](O)C[C@]2(C)[C@@]1(O)C(=O)CO` [dexamethasone, reference compound], the “collagen type II production in keratocytes” value in test [1] is reported as “no collagen type II production”.

For “TGFβ3: TGFβ3 polypeptide, SEQ ID NO:1; recombinant human TGFβ3 from commercial sources (Abcam, ab52313)”, the “collagen type II production in keratocytes” value in test [1] is recorded as “no collagen type II production”. For the same compound, the “ED50, inhibition of Mv1Lu cell proliferation” value in test [2] is no more than 0.05 µg/mL.
